Measured values taken from patent publication US20180353501A1 (Arvinas, Inc., priority 2017, published 2018).

Target: T1, p38α:PROTAC:VHL ternary complex (Homo sapiens, UniProt P40337+Q16539)
T1 construct: encodes a region spanning amino acids 2-360 of the human p38α kinase; made in house; host or cells: E. coli (BL21-CodonPlus(DE3)-RIPL for p38α; BL21(DE3) for GST-VBC)
Experiment: In vitro ternary complex pull-down with GST-VBC bait, purified p38α
Assay type: binding
Experimental: FIGS. 14A, 14B, and 14C. p38α selectivity is discriminated by ternary complex formation. (A) Only p38α incubated in the presence of exemplary compound 50 can be immunoprecipitated with GST-tagged VHL/EloB/EloC (VBC). Immobilized VBC was used as a bait to trap purified p38α in the presence of vehicle (DMSO), compound 50, or compound 46 (represented in micromolar concentrations). The rightmost lane represents a 1:25 dilution of initial input protein used in each pull-down. (B) Proximity-based AlphaLISA assay detects significant p38α:compound 50:VHL ternary complex, but no p38α:compound 46:VHL ternary complex. His-p38α and GST-VBC were incubated in the presence of increasing concentrations of compound 50 and compound 46 and the extent of ternary complex formation was assessed by excitation with incident light with 1=680 nm and capture of the emission light at 1=615 nm. Error bars represent the SD from quadruplicate experiments. […] FLAGimmunoprecipitated lysates were separated by SDS-PAGE and assessed via western blots detecting HA (Ub). […]
Following this logic, to the present disclosure seeks to describe the selectivity of exemplary compound 50 for p38α at the ternary complex level through the use of an in vitro ternary complex pull-down assay. […] Similarly, exemplary PROTACs 46 and 50 were evaluated in a proximity-based luminescence assay (AlphaLISA) to detect ternary complex formation. […]

T1 sequence (Q16539 2-360 limits assumed): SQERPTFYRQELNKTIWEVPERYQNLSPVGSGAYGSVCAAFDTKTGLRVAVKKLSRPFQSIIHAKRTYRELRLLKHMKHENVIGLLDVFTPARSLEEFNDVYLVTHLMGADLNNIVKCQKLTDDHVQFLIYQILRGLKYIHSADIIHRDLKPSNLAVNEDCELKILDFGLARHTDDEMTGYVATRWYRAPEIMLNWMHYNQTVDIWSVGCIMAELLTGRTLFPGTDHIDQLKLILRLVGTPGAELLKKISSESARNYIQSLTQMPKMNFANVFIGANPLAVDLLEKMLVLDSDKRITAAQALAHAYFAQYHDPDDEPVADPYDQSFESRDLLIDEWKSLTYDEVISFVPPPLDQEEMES
T1 sequence (P40337 whole entry, the tested form may be a part): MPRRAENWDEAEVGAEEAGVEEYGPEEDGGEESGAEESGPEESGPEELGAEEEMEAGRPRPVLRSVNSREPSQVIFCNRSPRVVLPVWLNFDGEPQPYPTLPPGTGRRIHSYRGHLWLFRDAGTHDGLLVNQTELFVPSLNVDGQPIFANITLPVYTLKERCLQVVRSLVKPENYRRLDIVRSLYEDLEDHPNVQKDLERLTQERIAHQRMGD
T1 sequence (Q15370 whole entry partner, the tested form may be a part): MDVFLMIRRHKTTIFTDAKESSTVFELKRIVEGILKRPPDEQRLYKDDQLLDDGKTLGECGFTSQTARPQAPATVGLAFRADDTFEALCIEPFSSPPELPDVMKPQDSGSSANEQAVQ
T1 sequence (Q15369 whole entry partner, the tested form may be a part): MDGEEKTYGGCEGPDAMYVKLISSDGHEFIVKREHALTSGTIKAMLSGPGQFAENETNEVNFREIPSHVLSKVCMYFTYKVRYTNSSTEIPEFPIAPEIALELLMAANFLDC

COc1cc2c(Oc3ccc(NC(=O)C4(C(=O)Nc5ccc(F)cc5)CC4)cc3F)ccnc2cc1OCCOCCOCCOc1cc(-c2scnc2C)ccc1CNC(=O)[C@@H]1C[C@@H](O)CN1C(=O)[C@H](C(C)C)N1Cc2ccccc2C1=O [compound 46]
enrichment of purified p38α on GST-VBC bait: no detectable enrichment

COc1cc2c(Oc3ccc(NC(=O)C4(C(=O)Nc5ccc(F)cc5)CC4)cc3F)ccnc2cc1OCCCCOCCCCOCC(=O)N[C@H](C(=O)N1C[C@H](O)C[C@H]1C(=O)NCc1ccc(-c2scnc2C)cc1)C(C)(C)C [compound 50, N-(3-fluoro-4-((7-(4-(4-(2-(((S)-1-((2S,4R)-4-hydroxy-2-((4-(4-methylthiazol-5-yl)benzyl)carbamoyl)pyrrolidin-1-yl)-3,3-dimethyl-1-oxobutan-2-yl)amino)-2-oxoethoxy)butoxy)buto-xy)-6-methoxyquinolin-4-yl)oxy)phenyl)-N-(4-fluorophenyl)cyclopropane-1,1-dicarboxa-mide]
enrichment of purified p38α on GST-VBC bait: substantial enrichment of purified p38α
